Where a name gives a salt, the structure may show the parent alone. Read-outs that look alike come from different tables or passages of the source.
Assays:
[1] = target: T1, angiotension I-converting enzyme (ACE) (Oryctolagus cuniculus, UniProt P12822); assay: Measurement of inhibitory activity against the angiotension I-converting enzyme (ACE), hippuryl-l-histidyl-l-leucine as substrate; format: biochemical, rabbit
T1 construct: The ACE solution was prepared by homogenizing 5 g of acetone powders of rabbit lungs; tissue Sigma Chemical Co; host or cells: rabbit lung (acetone powder, borate buffer extract, 40,000 G supernatant)
T1 sequence (P12822 34-1310): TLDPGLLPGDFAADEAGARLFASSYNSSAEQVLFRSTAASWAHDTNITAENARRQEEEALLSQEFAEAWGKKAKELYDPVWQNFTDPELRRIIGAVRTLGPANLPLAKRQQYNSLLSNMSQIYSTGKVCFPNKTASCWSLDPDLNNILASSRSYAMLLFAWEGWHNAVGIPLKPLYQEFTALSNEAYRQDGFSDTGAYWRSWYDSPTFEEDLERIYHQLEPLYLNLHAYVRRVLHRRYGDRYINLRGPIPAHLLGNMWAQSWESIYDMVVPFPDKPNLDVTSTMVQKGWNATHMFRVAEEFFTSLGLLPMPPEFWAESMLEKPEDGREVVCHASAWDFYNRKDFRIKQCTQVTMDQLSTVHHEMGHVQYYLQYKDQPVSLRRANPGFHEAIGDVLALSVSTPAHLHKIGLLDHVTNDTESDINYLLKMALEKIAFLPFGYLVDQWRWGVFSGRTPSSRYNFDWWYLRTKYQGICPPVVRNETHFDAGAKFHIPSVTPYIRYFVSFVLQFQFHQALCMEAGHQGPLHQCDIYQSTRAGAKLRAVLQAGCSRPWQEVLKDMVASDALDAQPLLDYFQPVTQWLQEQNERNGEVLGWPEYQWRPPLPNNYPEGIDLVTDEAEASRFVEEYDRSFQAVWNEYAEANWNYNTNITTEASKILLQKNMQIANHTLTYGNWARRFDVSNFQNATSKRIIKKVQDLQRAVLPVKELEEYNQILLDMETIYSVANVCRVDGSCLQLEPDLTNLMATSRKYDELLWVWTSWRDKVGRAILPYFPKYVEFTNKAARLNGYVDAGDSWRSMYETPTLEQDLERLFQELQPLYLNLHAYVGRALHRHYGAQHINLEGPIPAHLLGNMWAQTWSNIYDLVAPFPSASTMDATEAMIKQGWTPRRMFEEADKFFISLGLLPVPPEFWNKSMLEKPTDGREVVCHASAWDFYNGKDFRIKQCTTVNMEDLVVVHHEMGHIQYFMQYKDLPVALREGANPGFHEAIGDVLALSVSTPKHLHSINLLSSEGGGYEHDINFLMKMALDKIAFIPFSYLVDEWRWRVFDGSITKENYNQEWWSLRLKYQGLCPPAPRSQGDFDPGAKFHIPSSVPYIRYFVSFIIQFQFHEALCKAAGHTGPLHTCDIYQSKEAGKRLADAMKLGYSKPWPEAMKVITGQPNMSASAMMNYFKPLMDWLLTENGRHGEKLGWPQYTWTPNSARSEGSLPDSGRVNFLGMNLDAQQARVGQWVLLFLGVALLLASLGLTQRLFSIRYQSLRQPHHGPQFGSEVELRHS
Description: The inhibitory activities of compounds of the invention and of the known compound, prazosin, against the angiotension I-converting enzyme (ACE) were measured by the method of D. W. Cushman and H. S. Cheung [Biochem. Pharmacol. 20, 637 (1971)], using hippuryl-l-histidyl-l-leucine as a substrate. The reaction mixture consisted of 225 μl of a 0.1 M borate buffer solution (pH 8.3) containing 0.4 M sodium chloride, 25 μl of the substrate (12.5 mM solution), 25 μl of a partially purified ACE and 25 μl of a test compound solution (prepared from a 1 mg/ml aqueous acetone solution of the compound). This reaction mixture was maintained at 37° C. for 30 minutes, after which 300 μl of 1N hydrochloric acid were added in order to stop the reaction. 2 ml of ehtyl acetate were then added and the mixture was stirred for 10 seconds and then centrifuged at 3,000 rpm for 5 minutes. 1.5 ml of the ethyl acetate layer was separated and concentrated by evaporation to dryness. The residue was dissolved in 1 ml of distilled water and the quantity of hippuric acid in this solution was measured from its absorbance at 228 mμ, using a spectrophotometer.
The ACE solution was prepared by homogenizing 5 g of acetone powders of rabbit lungs (a product of Sigma Chemical Co., U.S.A., prepared by homogenizing rabbit lungs in a buffer solution and separating out the enzymes precipitated with acetone) in 50 ml of a borate buffer solution (pH 8.3), centrifuging the mixture at 40,000 G for 30 minutes and then separating the supernatant.
The inhibitory activity against ACE was calculated from the formula: [formula] in which Ac is the absorbance of the control and As is the absorbance of the sample. Inhibition curves were made for each sample by measuring the inhibitory activity at five different concentrations, prepared by two-fold dilutions. The IC50 values, which are the molar concentrations of the compounds required to inhibit the ACE activity by 50%, were calculated for each compound.

[2] = system: angiotensin I-converting enzyme; settings: reported by Cushman et al.; cited from earlier work
[3] = system: hypertensive animals; settings: reported by Cushman et al.; cited from earlier work
[4] = pH 8.3, 37° C., 30 minutes, partially purified ACE from rabbit lungs, read-out: Inhibitory concentration IC50

| IC50 [1, 4] [nM] | Structure (SMILES) | further results |
| --- | --- | --- |
| 1410 | CCOC(=O)N1CCN(c2nc(NC(=O)C3CSCN3C(=O)C(C)CSC(C)=O)c3cc(OC)c(OC)cc3n2)CC1 (racemic) [Example 6, 4-[3-(DL-3-Acetylthio-2-methylpropanoyl)thiazolidine-4-carbonyl]amino-2-(4-ethoxycarbonyl-1-piperazinyl)-6,7-dimethoxyquinazoline hydrochloride hemihydrate] | – |
| – | C[C@H](CS)C(=O)N1CCC[C@H]1C(=O)O [1-(D-3-mercapto-2-methylpropanoyl)-L-proline] | inhibitory activity against the angiotensin I-converting enzyme [2]: potent inhibitory activity; antihypertensive activity [3]: exhibits antihypertensive activity |
| 416 | CCOC(=O)N1CCN(c2nc(NC(=O)[C@@H]3CCCN3C(=O)[C@H](C)CSC(C)=O)c3cc(OC)c(OC)cc3n2)CC1 [Example 1, 4[1-(D-3-Acetylthio-2-methylpropanoyl)-L-prolyl]amino-2-(4-ethoxycarbonyl-1-piperazinyl)-6,7-dimethoxy-quinazoline hydrochloride hemihydrate] | – |
| 360 | C/C=C/C(=O)N1CCN(c2nc(NC(=O)[C@@H]3CCCN3C(=O)[C@H](C)CSC(C)=O)c3cc(OC)c(OC)cc3n2)CC1 [Example 2, 4[1-(D-3-Acetylthio-2-methylpropanoyl)-L-prolyl]amino-2-(4-crotonoyl-1-piperazinyl)-6,7-dimethoxyquinazoline. hydrochloride hydrate] | – |
| 341 | COc1cc2nc(N3CCN(C(=O)C(C)Oc4ccccc4)CC3)nc(NC(=O)[C@@H]3CCCN3C(=O)[C@H](C)CSC(C)=O)c2cc1OC (stereo partly drawn) [Example 3, 4-[1-(D-3-Acetylthio-2-methylpropanoyl)-L-prolyl]amino-6,7-dimethoxy-2[4-(2-phenoxypropionyl)-1-piperazinyl]quinazoline hydrochloride hydrate] | – |
| 445 | COc1cc2nc(N3CCN(C(=O)c4ccc(OCc5ccccc5)cc4)CC3)nc(NC(=O)[C@@H]3CCCN3C(=O)[C@H](C)CSC(C)=O)c2cc1OC [Example 4, 4-[1-(D-3-Acetylthio-2-methylpropanoyl)-L-prolyl]amino-2-[4-(4-benzyloxybenzoyl)-1-piperazinyl]-6,7-dimethoxy-quinazcline hydrochloride sesquihydrate] | – |
| 261 | COc1ccc(C(=O)N2CCN(c3nc(NC(=O)[C@@H]4CCCN4C(=O)[C@H](C)CSC(C)=O)c4cc(OC)c(OC)cc4n3)CC2)cc1OC [Example 5, 4-[1-(D-3-Acetylthio-2-methylpropanoyl)-L-prolyl]amino-2-(4-(3,4-dimethoxybenzoyl)-1-piperazinyl]-6,7-dimethoxy-quinazoline hydrochloride sesquihydrate] | – |
| 310 | COc1cc2nc(N3CCN(C(=O)c4ccco4)CC3)nc(NC(=O)[C@@H]3CCCN3C(=O)[C@H](C)CSC(C)=O)c2cc1OC [Example 7, 4-[1-(D-3-Acetylthio-2-methylpropanoyl)-L-prolyl]amino-2-[4-(2-furoyl)-1-piperazinyl]-6,7-dimethoxyquinazoline.hydrochloride.hydrate] | – |
| – | COc1cc2nc(N3CCN(C(=O)c4ccco4)CC3)nc(N)c2cc1OC [prazosin, reference compound] | IC50 [1]: ≥ 10000 nM |

— patent US4495188A, “Acylaminoquinazoline derivatives and a pharmaceutical composition containing them” (Sankyo Company Limited, priority 1980, dated 1985)
